Test results reported in ChEMBL document CHEMBL1201862, “PubChem BioAssay data set” (2004).
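Cultured in 96-well plates, cells were exposed to test compound for 48 hours across five concentrations. At the GI50, growth is halved.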 Active and inactive are the calls of the source. Cut-off read from the data, not from the text of the source: active = GI50 up to about 1.1 µM and inactive = higher.

Columns and labels:
Test in all cases: NCI anticancer screen, dose series, 48 h
EKVX = test system: EKVX
CCRF-CEM = test system: CCRF-CEM
SF-539 = test system: SF-539
DMS-273 = test system: DMS-273
COLO 205 = test system: COLO 205
SK-MEL-5 = test system: SK-MEL-5
A498 = test system: A498
U-251 = test system: U-251
HL-60 = test system: HL-60
Malme-3M = test system: Malme-3M
LXFL 529 = test system: LXFL 529
LOX IMVI = test system: LOX IMVI
HCC 2998 = test system: HCC 2998
786-0 = test system: 786-0
UO-31 = test system: UO-31
M19-MEL = test system: M19-MEL
UACC-62 = test system: UACC-62
ACHN = test system: ACHN
SF-295 = test system: SF-295
IGROV-1 = test system: IGROV-1
NCI-H460 = test system: NCI-H460
SK-MEL-2 = test system: SK-MEL-2
RXF 631 = test system: RXF 631
OVCAR-4 = test system: OVCAR-4
SR = test system: SR
SK-MEL-28 = test system: SK-MEL-28
HOP-92 = test system: HOP-92
OVCAR-8 = test system: OVCAR-8
A549 = test system: A549
UACC-257 = test system: UACC-257
HCT-15 = test system: HCT-15
M14 = test system: M14
SNB-19 = test system: SNB-19
DMS-114 = test system: DMS-114
MOLT-4 = test system: MOLT-4
DLD-1 = test system: DLD-1
SN12C = test system: SN12C
K562 = test system: K562
HOP-18 = test system: HOP-18
TK-10 = test system: TK-10
SW-620 = test system: SW-620
HOP-62 = test system: HOP-62
CAKI-1 = test system: CAKI-1
OVCAR-5 = test system: OVCAR-5
SNB-75 = test system: SNB-75
SK-OV-3 = test system: SK-OV-3
NCI-H522 = test system: NCI-H522
SNB-78 = test system: SNB-78
KM12 = test system: KM12
SF-268 = test system: SF-268
RXF 393 = test system: RXF 393
NCI-H226 = test system: NCI-H226
HCT-116 = test system: HCT-116
KM-20L2 = test system: KM-20L2
RPMI-8226 = test system: RPMI-8226
NCI-H23 = test system: NCI-H23
OVCAR-3 = test system: OVCAR-3
HT-29 = test system: HT-29

`CC12CCC([C@H](N3CCOCC3)/C1=N\OCCN1CCCC1)C2(C)C` (some centres not stated) was tested, and the GI50 (EKVX) was > 100 µM (inactive), the GI50 (CCRF-CEM) was > 100 µM (inactive) and the GI50 (SF-539) was > 100 µM (inactive). For the same compound, the GI50 (DMS-273) was > 100 µM (inactive), the GI50 (COLO 205) was > 100 µM (inactive) and the GI50 (SK-MEL-5) was > 100 µM (inactive). The GI50 (A498) was > 100 µM (inactive), the GI50 (U-251) was > 100 µM (inactive) and the GI50 (HL-60) was > 100 µM (inactive). For the same compound, the GI50 (Malme-3M) was > 100 µM (inactive), the GI50 (LXFL 529) was > 100 µM (inactive) and the GI50 (LOX IMVI) was > 100 µM (inactive). The GI50 (HCC 2998) was > 100 µM (inactive), the GI50 (786-0) was > 100 µM (inactive) and the GI50 (UO-31) was > 100 µM (inactive). The GI50 (M19-MEL) was > 100 µM (inactive), the GI50 (UACC-62) was > 100 µM (inactive) and the GI50 (ACHN) was > 100 µM (inactive). For the same compound, the GI50 (SF-295) was > 100 µM (inactive), the GI50 (IGROV-1) was > 100 µM (inactive) and the GI50 (NCI-H460) was > 100 µM (inactive). For the same compound, the GI50 (SK-MEL-2) was > 100 µM (inactive), the GI50 (RXF 631) was > 100 µM (inactive) and the GI50 (OVCAR-4) was > 100 µM (inactive). For the same compound, the GI50 (SR) was > 100 µM (inactive), the GI50 (SK-MEL-28) was > 100 µM (inactive) and the GI50 (HOP-92) was > 100 µM (inactive). For the same compound, the GI50 (OVCAR-8) was > 100 µM (inactive), the GI50 (A549) was > 100 µM (inactive) and the GI50 (UACC-257) was > 100 µM (inactive). For the same compound, the GI50 (HCT-15) was over 100 µM, the GI50 (M14) was > 100 µM (inactive) and the GI50 (SNB-19) was > 100 µM (inactive). The GI50 (DMS-114) was 71.9 µM (inactive), the GI50 (MOLT-4) was > 100 µM (inactive) and the GI50 (DLD-1) was > 100 µM (inactive). For the same compound, the GI50 (SN12C) was > 100 µM (inactive), the GI50 (K562) was > 100 µM (inactive) and the GI50 (HOP-18) was > 100 µM (inactive). The GI50 (TK-10) was > 100 µM (inactive), the GI50 (SW-620) was > 100 µM (inactive) and the GI50 (HOP-62) was > 100 µM (inactive). The GI50 (CAKI-1) was > 100 µM (inactive), the GI50 (OVCAR-5) was > 100 µM (inactive) and the GI50 (SNB-75) was > 100 µM (inactive). The GI50 (SK-OV-3) was > 100 µM (inactive), the GI50 (NCI-H522) was > 100 µM (inactive) and the GI50 (SNB-78) was > 100 µM (inactive). For the same compound, the GI50 (KM12) was > 100 µM (inactive), the GI50 (SF-268) was > 100 µM (inactive) and the GI50 (RXF 393) was > 100 µM (inactive). For the same compound, the GI50 (NCI-H226) was > 100 µM (inactive), the GI50 (HCT-116) was > 100 µM (inactive) and the GI50 (KM-20L2) was > 100 µM (inactive). The GI50 (RPMI-8226) was > 100 µM (inactive), the GI50 (NCI-H23) was > 100 µM (inactive) and the GI50 (OVCAR-3) was > 100 µM (inactive). The GI50 (HT-29) was > 100 µM (inactive).
In the case of `Cn1cnc([N+](=O)[O-])c1Sc1nnc(C(F)(F)F)n1C`, the GI50 (EKVX) is reported as > 100 µM (inactive), the GI50 (CCRF-CEM) is reported as 18.5 µM (inactive) and the GI50 (SF-539) is reported as 20.5 µM (inactive). For the same compound, the GI50 (DMS-273) was 25.6 µM (inactive), the GI50 (COLO 205) was 14.6 µM (inactive) and the GI50 (SK-MEL-5) was 32.6 µM (inactive). For the same compound, the GI50 (A498) was > 100 µM (inactive), the GI50 (U-251) was 17.1 µM (inactive) and the GI50 (Malme-3M) was 15.1 µM (inactive). The GI50 (LXFL 529) was 14.2 µM (inactive), the GI50 (LOX IMVI) was 15.3 µM (inactive) and the GI50 (HCC 2998) was 75.2 µM (inactive). For the same compound, the GI50 (786-0) was 39.4 µM (inactive), the GI50 (UO-31) was 26.5 µM (inactive) and the GI50 (M19-MEL) was 18.9 µM (inactive). For the same compound, the GI50 (UACC-62) was 18 µM (inactive), the GI50 (ACHN) was 23.6 µM (inactive) and the GI50 (SF-295) was > 100 µM (inactive). The GI50 (IGROV-1) was 40 µM (inactive), the GI50 (NCI-H460) was > 100 µM (inactive) and the GI50 (SK-MEL-2) was 21.9 µM (inactive). For the same compound, the GI50 (RXF 631) was 17.6 µM (inactive), the GI50 (OVCAR-4) was 24.3 µM (inactive) and the GI50 (SR) was 17.6 µM (inactive). The GI50 (SK-MEL-28) was 18.7 µM (inactive), the GI50 (HOP-92) was 16 µM (inactive) and the GI50 (OVCAR-8) was 24.9 µM (inactive). The GI50 (A549) was > 100 µM (inactive), the GI50 (UACC-257) was 17.3 µM (inactive) and the GI50 (M14) was 17.4 µM (inactive). The GI50 (SNB-19) was > 100 µM (inactive), the GI50 (DMS-114) was 34.6 µM (inactive) and the GI50 (MOLT-4) was 15.2 µM (inactive). The GI50 (DLD-1) was 16.4 µM (inactive), the GI50 (SN12C) was 40.2 µM (inactive) and the GI50 (K562) was 23.4 µM (inactive). For the same compound, the GI50 (HOP-18) was 19.5 µM (inactive), the GI50 (TK-10) was 26.4 µM (inactive) and the GI50 (SW-620) was 18.6 µM (inactive). For the same compound, the GI50 (HOP-62) was > 100 µM (inactive), the GI50 (CAKI-1) was 62.1 µM (inactive) and the GI50 (OVCAR-5) was > 100 µM (inactive). For the same compound, the GI50 (SNB-75) was 84.1 µM (inactive), the GI50 (SK-OV-3) was > 100 µM (inactive) and the GI50 (NCI-H522) was 10.4 µM (inactive). For the same compound, the GI50 (SNB-78) was 26.2 µM (inactive), the GI50 (KM12) was > 100 µM (inactive) and the GI50 (SF-268) was 83.6 µM (inactive). The GI50 (NCI-H226) was 24.9 µM (inactive), the GI50 (HCT-116) was 16.3 µM (inactive) and the GI50 (RPMI-8226) was 19.7 µM (inactive). For the same compound, the GI50 (NCI-H23) was 37.5 µM (inactive), the GI50 (OVCAR-3) was 22 µM (inactive) and the GI50 (HT-29) was 35.7 µM (inactive).
